Results on nine compounds are retold here after US20260373138A1, “COMPOUNDS WITH ANTIFUNGAL PROPERTIES” (priority 2023, published 2026).

Assay [1] relates to Aspergillus fumigatus SrbA pathway. As to conditions: phenotype of SrbA pathway inhibition, previously published; cited from earlier work.
For assay [2], the system named is A. fumigatus CEA10 reference strain. Put plainly: Fluconazole potentiator screen: MIC by CLSI microbroth dilution with and without fluconazole. Type of assay: cell-based, Aspergillus fumigatus. The settings on record: for MIC: Aspergillus fumigatus, read-out: MIC (ug/mL) (−) Fluc; for MIC / MIC (ug/mL) (+) Fluc: 18 h; for MIC (ug/mL) (+) Fluc: with 32 μg/ml fluconazole, normoxia, GMM, 37 °C.

Molecules are shown by their SMILES.

Turning to `OC(Cn1cncn1)(Cn1cncn1)c1ccc(F)cc1F` [fluconazole], the MIC to fluconazole in assay [1] was < 8 µg/mL.
With `O=C(O)c1ccc(C(=O)N2CCC(Cc3ccc(COc4ccncc4)cc3)CC2)cc1` [MBX-8138], in assay [2], the MIC was > 21 µg/mL and the “MIC (ug/mL) (+) Fluc” value was >21 µg/mL.
Taken in the same sequence, the figures for `O=C(O)c1cccc(S(=O)(=O)N2CCC3(CC2)CC(CCOc2ccncc2)CCO3)c1` (stereo not drawn) [MBX-7962] were > 92 µg/mL and >92 µg/mL.
Taken in the same sequence, the figures for `CC(C)(O)c1ccc(C(=O)N2CCC(Cc3ccc(COc4ccncc4)cc3)CC2)cc1` [MBX-8139] were > 22 µg/mL and >22 µg/mL.
Regarding `O=S(=O)(c1ccc(F)cc1)N1CCC(Cc2ccc(CN3CCOCC3)cc2)CC1` [MBX-8145], in assay [2], the MIC was determined as 0.3 µg/mL and the “MIC (ug/mL) (+) Fluc” value turned out to be 0.08 µg/mL. Besides, the “increase in potentiation of fluconazole” value in assay [2] (morpholine series, para-fluorophenyl substitution) was 6 fold.
With `O=S(=O)(c1ccc(F)cc1)N1CCC(Cc2ccc(COc3ccncc3)cc2)C1` (stereo not drawn) [MBX-8391], in assay [2], the MIC was 1 µg/mL and the “MIC (ug/mL) (+) Fluc” value came out at 0.20 µg/mL.
For the compound `O=C(c1ccccc1F)N1CCC(Cc2ccc(COc3ccncc3)cc2)CC1` [MBX-7769], in assay [2], the MIC stood at 11.4 µg/mL and the “MIC (ug/mL) (+) Fluc” value turned out to be 8.09 µg/mL.
On to `O=C1c2ccsc2CCN1Cc1ccc(CCOc2ccncc2)cc1` [MBX-8354], for which, in assay [2], the MIC came out at 9 µg/mL and the “MIC (ug/mL) (+) Fluc” value amounted to 14.00 µg/mL.
For `O=S(=O)(c1ccc(F)cc1)N1CCC(Cc2ccc(CN3CCOCC3)c(F)c2)CC1` [MBX-8356], in assay [2], the MIC was determined as 0.6 µg/mL and the “MIC (ug/mL) (+) Fluc” value stood at 0.09 µg/mL.
